Test results published in article PMC9315260, “Diarylamine-Guided Carboxamide Derivatives: Synthesis, Biological Evaluation, and Potential Mechanism of Action” (Frontiers in Chemistry, 2022).

Tests used:
[1] = system: SGC-7901 (human gastric cancer cell line); test: MTT in vitro cytotoxicity assay, SGC-7901; assay type: cell-based; conditions: for IC50: mean ± S.D.; for inhibition at 100 µM: SGC-7901, at 100 µM, read-out: Cell growth inhibition (%) SGC-7901
Experimental: (§1) The lead molecules A2 and all newly prepared diarylamine derivatives B1-13 and C1-11 were evaluated for their in vitro cytotoxic effects against SGC-7901, A875, HepG2 and MARC145 cell lines by the classical MTT [3-(4,5-dimethylthiazol-2-yl)-2,5-diphenyl tetrazolium bromide] assay ([Alley et al., 1988]; [Ke et al., 2012]; [Shi et al., 2012]; [Yu et al., 2015]; [Ke et al., 2019]; [Xu et al., 2019]; [Huang et al., 2021]) using 5-FU (5-Fluorouracil) as a control.
(§2) The cytotoxicity of target compounds was determined with MTT assay ([Alley et al., 1988]; [Ke et al., 2012]; [Shi et al., 2012]; [Yu et al., 2015]; [Ke et al., 2019]; [Xu et al., 2019]; [Huang et al., 2021]). SGC-7901, A875, HepG2 and MARC145 cell lines were obtained from Hubei Biopesticide Engineering Research Centre. All data of the experiment were analyzed with SPSS software, and all assay were performed in triplicate on three independent experiments, and measurement data were expressed as the mean ± S.D.
(§3) The in vitro cytotoxicity of the synthesized compounds against different cell lines (SGC-7901, A875, HepG2 and MARC145) was measured with MTT assay. All the data of the experiment were analyzed with SPSS software, and the 50% inhibitory concentrations (IC50) of each compound for the different cell lines were determined. A control was run for each test, and all assays were performed in triplicate on three independent experiments, and measurement data were expressed as the mean ± S.D.

[2] = system: HepG2 (human hepatocellular liver carcinoma cell line); test: MTT in vitro cytotoxicity assay, HepG2; assay type: cell-based; conditions: for IC50: mean ± S.D.; for inhibition at 100 µM: HepG2, at 100 µM, read-out: Cell growth inhibition (%) HepG2
Experimental: as §1, §2, §3

[3] = system: A875 (human melanoma cell line); test: MTT in vitro cytotoxicity assay, A875; assay type: cell-based; conditions: for IC50: mean ± S.D.; for inhibition at 100 µM: A875, at 100 µM, read-out: Cell growth inhibition (%) A875
Experimental: as §1, §2, §3

[4] = MTT in vitro cytotoxicity assay, MARC145; assay type: cell-based, African green monkey; conditions: African green monkey, MARC145 cells (kidney cell line, subclone of MA-104), MTT, mean ± S.D.
Experimental: as §1, §2, §3

[5] = system: MARC145 (subclone of African green monkey kidney cell line MA-104); test: MTT in vitro cytotoxicity assay, MARC145; assay type: cell-based; conditions: Chlorocebus sabaeus, MARC145; at 100 µM; read-out: Cell growth inhibition (%) MARC145
Experimental: as §1, §2, §3

SMILES	IC50 ([1]; SGC-7901, Table 1, MTT)	IC50 ([2]; HepG2, Table 1, MTT)	IC50 ([3]; A875, Table 1, MTT)	IC50 ([4]; Table 1)	melting point	IC50 ([1]; SGC-7901, Table 3, MTT)	inhibition at 100 µM [1]	IC50 ([2]; HepG2, Table 3, MTT)	inhibition at 100 µM [2]	IC50 ([3]; A875, Table 3, MTT)	inhibition at 100 µM [3]	inhibition at 100 µM [5]	IC50 ([4]; Table 3)
NC(=O)c1ccccc1NC(=O)c1ccccc1Nc1cccc(C(F)(F)F)c1 [B1, N-(2-Carbamoylphenyl)-2-((3-(trifluoromethyl)phenyl)amino)benzamide]	> 100 µM	> 100 µM	> 100 µM	> 100 µM	136 to 137 °C								
CNC(=O)c1ccccc1NC(=O)c1ccccc1Nc1cccc(C(F)(F)F)c1 [B2, N-Methyl-2-(2-((3-(trifluoromethyl)phenyl)amino)benzamido)benzamide]	> 96 µM	> 96 µM	> 96 µM	> 96 µM									
NC(=O)c1cc(F)cc(Br)c1NC(=O)c1ccccc1Nc1cccc(C(F)(F)F)c1 [B3, 3-Bromo-5-fluoro-2-(2-((3-(trifluoromethyl)phenyl)amino)benzamido)benzamide]	22.5 ± 4.04 µM	> 80 µM	> 80 µM	38 ± 0.81 µM	198 to 199 °C								
CNC(=O)c1cc(F)cc(Br)c1NC(=O)c1ccccc1Nc1cccc(C(F)(F)F)c1 [B4, 3-Bromo-5-fluoro-N-methyl-2-(2-((3-(trifluoromethyl)phenyl)amino)benzamido)benzamide]	> 78 µM	> 78 µM	> 78 µM	> 78 µM	189 to 190 °C								
Cc1cccc(C(N)=O)c1NC(=O)c1ccccc1Nc1cccc(C(F)(F)F)c1 [B5, N-(2-Carbamoyl-6-methylphenyl)-2-((3-(trifluoromethyl)phenyl)amino)benzamide]	> 97 µM	> 97 µM	> 97 µM	> 97 µM									
CNC(=O)c1cccc(C)c1NC(=O)c1ccccc1Nc1cccc(C(F)(F)F)c1 [B6, N,3-Dimethyl-2-(2-((3-(trifluoromethyl)phenyl)amino)benzamido)benzamide]	> 94 µM	> 94 µM	> 94 µM	> 94 µM									
NC(=O)c1ccc(Cl)cc1NC(=O)c1ccccc1Nc1cccc(C(F)(F)F)c1 [B7, N-(2-Carbamoyl-5-chlorophenyl)-2-((3-(trifluoromethyl)phenyl)amino)benzamide]	> 92 µM	> 92 µM	> 92 µM	> 92 µM	176 to 177 °C								
CNC(=O)c1ccc(Cl)cc1NC(=O)c1ccccc1Nc1cccc(C(F)(F)F)c1 [B8, 4-Chloro-N-methyl-2-(2-((3-(trifluoromethyl)phenyl)amino)benzamido)benzamide]	> 89 µM	> 89 µM	> 89 µM	> 89 µM	152 to 153 °C								
NC(=O)c1cc(Cl)ccc1NC(=O)c1ccccc1Nc1cccc(C(F)(F)F)c1 [B9, N-(2-Carbamoyl-4-chlorophenyl) -2-((3-(trifluoromethyl)phenyl)amino)benzamide]	> 92 µM	> 92 µM	> 92 µM	> 92 µM									
CNC(=O)c1cc(Cl)ccc1NC(=O)c1ccccc1Nc1cccc(C(F)(F)F)c1 [B10, 5-Chloro-N-methyl-2-(2-((3-(trifluoromethyl)phenyl)amino)benzamido)benzamide]	39.4 ± 8.96 µM	49.9 ± 9.26 µM	> 89 µM	38 ± 9.84 µM	190 to 191 °C								
NC(=O)c1c(Cl)cccc1NC(=O)c1ccccc1Nc1cccc(C(F)(F)F)c1 [B11, N-(2-Carbamoyl-3-chlorophenyl)-2-((3-(trifluoromethyl)phenyl)amino)benzamide]	> 92 µM	> 92 µM	> 92 µM	> 92 µM	194 to 195 °C								
CNC(=O)c1c(Cl)cccc1NC(=O)c1ccccc1Nc1cccc(C(F)(F)F)c1 [B12, 2-Chloro-N-methyl-6-(2-((3-(trifluoromethyl)phenyl)amino)benzamido)benzamide]	> 89 µM	> 89 µM	> 89 µM	> 89 µM	178 to 179 °C								
CNC(=O)c1cc(Cl)cc(Cl)c1NC(=O)c1ccccc1Nc1cccc(C(F)(F)F)c1 [B13, 3,5-Dichloro-N-methyl-2-(2-((3-(trifluoromethyl)phenyl)amino)benzamido)benzamide]	> 83 µM	> 83 µM	> 83 µM	> 83 µM	180 to 181 °C								
CC(C)c1ccc(NC(=O)c2ccccc2Nc2cccc(C(F)(F)F)c2)cc1 [C1, N-(4-Isopropylphenyl)-2-((3-(trifluoromethyl)phenyl)amino)benzamide]					74 to 75 °C	47 ± 9.74 µM	72.3 ± 3.1%	> 100 µM	42.7 ± 3.1%	> 100 µM	43.1 ± 2%	7.5 ± 2.3%	> 100 µM
CC(C)c1ccc(NC(=O)c2cccnc2Nc2cccc(C(F)(F)F)c2)cc1 [C2, N-(4-Isopropylphenyl)-2-((3-(trifluoromethyl)phenyl)amino)nicotinamide]					161 to 162 °C	> 100 µM	26.9 ± 1.8%	> 100 µM	13.1 ± 2.3%	> 100 µM	42 ± 2.5%	15.8 ± 1.9%	> 100 µM
O=C(Nc1ccccc1C(F)(F)F)c1ccccc1Nc1cccc(C(F)(F)F)c1 [C3, N-(2-(Trifluoromethyl)phenyl)-2-((3-(trifluoromethyl)phenyl)amino)benzamide]					82 to 83 °C	29.7 ± 4.03 µM	78.6 ± 2.9%	24.2 ± 3.21 µM	88.5 ± 3.2%	> 94 µM	56.4 ± 2.5%	23.5 ± 2.1%	> 94 µM
O=C(Nc1ccccc1C(F)(F)F)c1cccnc1Nc1cccc(C(F)(F)F)c1 [C4, N-(2-(Trifluoromethyl)phenyl)-2-((3-(trifluoromethyl)phenyl)amino)nicotinamide]					139 to 140 °C	> 94 µM	4.5 ± 0.4%	> 94 µM	3.1 ± 1.2%	> 94 µM	5.2 ± 1.5%	0%	> 94 µM
O=C(Nc1ccc(C(F)(F)F)cc1)c1cccnc1Nc1cccc(C(F)(F)F)c1 [C8, N-(4-(Trifluoromethyl)phenyl)-2-((3-(trifluoromethyl)phenyl)amino)nicotinamide]						> 94 µM	51.2 ± 3.5%	> 94 µM	42.4 ± 2.6%	55.6 ± 6.73 µM	56.5 ± 3.1%	65.8 ± 2.6%	57.7 ± 8.87 µM
